Results published in patent EP1094724B1, “USE OF A PHENOL OXIDISING ENZYME IN THE TREATMENT OF TOBACCO” (priority 1998, dated 2000).

What was measured:
[1] = molecular target: T1, laccase derived from Trametes villosa, TvL (Trametes villosa, UniProt Q99044); assay: Effect of laccase on tobacco constituents, UV/Vis spectra before and after treatment (Example 1); format: biochemical; conditions: 9 mM Na-acetate buffer pH 5.0; 4.8% Ethanol; 0.025 mg/ml of tobacco constituent; 0.016 mg/ml laccase; spectra 190-700 nm every 20 seconds for 5 minutes
T1 construct: purchased Novo Nordisk A/S
T1 sequence (Q99044 22-520): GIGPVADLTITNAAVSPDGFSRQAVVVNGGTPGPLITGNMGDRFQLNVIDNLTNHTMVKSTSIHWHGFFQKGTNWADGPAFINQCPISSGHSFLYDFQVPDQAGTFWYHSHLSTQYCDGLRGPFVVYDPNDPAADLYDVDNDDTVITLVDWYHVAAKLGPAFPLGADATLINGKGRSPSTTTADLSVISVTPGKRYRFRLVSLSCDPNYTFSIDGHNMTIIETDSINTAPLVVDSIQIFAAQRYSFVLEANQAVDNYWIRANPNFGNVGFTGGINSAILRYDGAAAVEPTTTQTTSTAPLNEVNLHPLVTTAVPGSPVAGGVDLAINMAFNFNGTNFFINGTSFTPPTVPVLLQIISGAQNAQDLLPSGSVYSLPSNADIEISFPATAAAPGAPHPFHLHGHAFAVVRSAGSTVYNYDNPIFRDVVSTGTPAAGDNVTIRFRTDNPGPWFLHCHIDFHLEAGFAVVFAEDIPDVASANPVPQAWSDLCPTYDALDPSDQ
Experimental: Tobacco constituents: Nicotine, Chlorogenic acid, Rutin and Scopoletin. Enzyme: Purified laccase derived from Trametes villosa, TvL. Apparatus: HP8452 UV/Vis diode array spectrophotometer, 1 cm quarts cuvette. Buffer: Sodium acetate (Merck)
10 mM acetate buffer was prepared from sodium acetate adjusted to pH 5.0 with sulphuric acid. Stock solution of 0.50 mg/ml in 96% ethanol was prepared of nicotine, chlorogenic acid, rutin, and scopoletin. A stock solution of 0.31 mg enzyme protein/ml of laccase in de-mineralised water was prepared. The HP diode array spectrophotometer was operated as per the manufacturer's instructions. A 1 cm quartz cuvette was used. As a blank was used 950µl buffer mixed with 50µl 96% ethanol. In a 1 cm quart cuvette was mixed 900µl 10 mM acetate buffer and 50µl of the stock solution of the compound in question. A spectrum of the "native" compound was recorded in the range 190-700 nm. 50µl of TvL stock solution was added and carefully mixed, and spectra in the range 190-700 nm were recorded every 20 seconds for 5 minutes.

[2] = molecular target: T2, Trametes villosa laccase (TvL) (Trametes villosa, UniProt Q99044); assay: Laccase TvL treatment of tobacco extract, HPLC analysis of phenolic compounds (peak area); format: biochemical; conditions: for % Remaining (peak area) after various treatment times: intensive, submerse aeration; for % Remaining (peak area) after 75 minutes / % Remaining (peak area) after 240 minutes: 1.6 µg/ml TvL, ambient temperature (approximately 20°C), surface aeration
T2 construct: purchased Novo Nordisk A/S
T2 sequence (Q99044 22-520): T1 sequence (Q99044 22-520)
Experimental: The content of phenolic compounds is analysed by HPLC according to the procedure described below: • Liquid chromatographic system: E.g. Shimadzu SCL-6B System Controller, and two LC-6A Liquid Chromatograph (pumps) or Waters model 600 E • Injector: Shimadzu SIL 6B Autoinjector or Waters 715 Ultra Wisp. UV detector: Shimadzu SPD-6A Photodiode Array UV-VIS detector or Waters Model 481 • Software: CLASS LC10 / CLASS-MXA or Maxima 820 • Column: Supelcosil™ LC-18 25 cm x 4.6 mm (Supelco, #5-8298) or µ Bondapack C198 stainless steel column, 30 cm x 4 mm i.d., 10 µm particle size. • Guard column: none or Guard-Pak from Waters packed with the same material. • Temperature: Ambient • Mobile phase flow: 1.3 ml/min • Injection volume: 20µl • Wavelength: 350 nm • Eluent: Binary gradient (linear) mixture of A: KH2PO4 (28.4 g in 2000 ml de-mineralised water) and B: methanol (please see table 1 and figure 1). The eluent is filtered through a 0.45 µm filter and degassed before use.
Prior to HPLC analysis, the samples were filtered through a 0.45 µm filter or smaller, e.g. a sterile Sartorius Minisart 0.45 µm filter (#16555) or a Millipore Millex-GS 0.22 µm (#SBGS 0 25 SB) to remove the haze/precipitate normally formed during enzyme treatment. Normally, no dilution of the extract/sample was made before HPLC analysis.
For qualitative and semi-quantitative measurements, each of the standards was dissolved in 96% ethanol, and then mixed in a ratio and at a concentration which was within the range in the tobacco extract. For semi-quantification of the phenolic compounds in the tobacco extract, and as a measure of development in concentration of the various compounds contained in the extract, decrease in peak area relative to the peak area before addition of enzyme was used. As a measure of overall efficiency of the process, degree of reduction in total peak area of all peaks (not only the major ones) in the HPLC chromatogram with retention time Rt>3 min was used (named: "All peaks").
Unless otherwise indicated, the tobacco was extracted at a laboratory scale with water according to the following procedure: 1000 ml demineralised water is heated to 45°C. 30 g tobacco (approx. 25 g d.m.) is added and the mixture stirred by a magnetic bar and occasionally with a stick. After 15 minutes the tobacco residue is separated from the tobacco extract by vacuum filtration (Whatman glass micro fibre GF/F 11 cm). The filtered extract is then vacuum filtered at least once more or until it is completely clear. Yield was around 900 ml tobacco extract. […] No buffer was thus included in any of the trials. D.m. content of the extract was approximately 2.1%.
Tobacco extract (typically 50-100 ml) was poured into a glass beaker and a magnetic bar was added. No pH adjustments were made, and no buffer was added. The tobacco extract was heated to and controlled at 55°C during the entire enzyme treatment by means of a heating plate and a thermostat. Intensive submerse aeration was applied by blowing atmospheric air into the extract by means of a metal sinter (metal suction filter normally used for HPLC). The enzyme in question (TvL or PpL) was added to the desired concentration. Shortly after addition of laccase, the colour of the tobacco extract turned dark brown to black, and with time the liquor became turbid and a precipitate formed. The liquor was sampled with intervals for HPLC analysis.
Enzyme treatment: Surface aeration was used. TvL enzyme was added to the tobacco extract to a concentration of approximately 1.6 µg/ml. […] HPLC chromatograms of the tobacco extract before, during, and after enzyme treatment as well as chromatograms of the mixture of HPLC standards are shown in figure 6, 7, ,8, and 9.
Enzyme treatment: pH of the extract was adjusted with H2SO4 or NaOH to pH 4, pH 5, pH 6, or pH 7. The extract was kept at ambient temperature (approximately 20°C) during the entire enzyme treatment. Surface aeration was used. […]

Row | SMILES | spectral changes (peak position and peak relative height) [1] | % Remaining (peak area) after various treatment times ([2]; 40 Min, approximately 1.6 µg/ml TvL at 55°C and pH 5.4) | % Remaining (peak area) after various treatment times ([2]; 40 Min, approximately 7.8µg/ml TvL at 55°C and pH 5.4) | % Remaining (peak area) after various treatment times ([2]; 80 Min, approximately 1.6 µg/ml TvL at 55°C and pH 5.4) | % Remaining (peak area) after various treatment times ([2]; 120 Min, approximately 1.6 µg/ml TvL at 55°C and pH 5.4) | % Remaining (peak area) after 75 minutes ([2]; pH 4) | % Remaining (peak area) after 240 minutes ([2]; pH 4) | % Remaining (peak area) after 75 minutes ([2]; pH 5) | % Remaining (peak area) after 240 minutes ([2]; pH 5) | % Remaining (peak area) after 75 minutes ([2]; pH 6) | % Remaining (peak area) after 240 minutes ([2]; pH 6) | % Remaining (peak area) after 75 minutes ([2]; pH 7) | % Remaining (peak area) after 240 minutes ([2]; pH 7)
1 | CN1CCCC1c1cccnc1 (stereo not shown) [Nicotine] | No spectral changes |  |  |  |  |  |  |  |  |  |  |  | 
2 | C[C@@H]1O[C@@H](OC[C@H]2O[C@@H](Oc3c(-c4ccc(O)c(O)c4)oc4cc(O)cc(O)c4c3=O)[C@H](O)[C@@H](O)[C@@H]2O)[C@H](O)[C@H](O)[C@H]1O [R, rutin] |  | 20% | 0% | 0% | 0% | 44% | 0% | 29% | 0% | 14% | 0% | 87% | 63%
